Assay results published in patent publication US12162869B2, “Type II crystalline topramezone sodium salt hydrate, preparation method therefor and use thereof” (Rotam Agrochem International Company Limited, priority 2022, dated 2024).

Assays:
[1] = Product performance comparison: storage of preparation samples at 54° C. for 2 weeks; assay type: physicochemical; details: stored at 54° C. for 2 weeks; characters before and after storage compared
Experimental: The preparation samples 1, 2, 3, 4, 5, 6, 7, 8, 9, 10, 11 and 12 prepared in Application examples 1-4 are stored at 54° C. for 2 weeks, respectively. The character changes of each sample before and after storage are compared.

[2] = Heat storage experiment of the preparation product; assay type: physicochemical
Experimental: In the preparation of solid preparations containing topramezone, the crystalline form I of the topramezone sodium salt can be better granulated compared with the anhydrous substance of the topramezone sodium salt. […] However, the preparation of type I topramezone sodium salt hydrate requires standing in water or a water-containing mixed solvent at −10° C.-15° C. for 10-48 h to complete the crystallization.

[3] = aqueous preparation; reported in US 2010075853 A; cited from earlier work

Question: With “type II crystalline topramezone sodium salt hydrate” as the molecule, how does the Character changes [1] read?
Answer: stable after storage

Question: With `Cc1c(C(=O)c2cnn(C)c2[O-])ccc(S(C)(=O)=O)c1C1=NOCC1.Cc1c(C(=O)c2cnn(C)c2[O-])ccc(S(C)(=O)=O)c1C1=NOCC1.O.O.O.O.O.[Na+].[Na+]` [type I topramezone sodium salt hydrate, 2.5 water topramezone sodium salt hydrate] as the molecule, how does the “Stability of the preparation in heat storage, compared with the preparation based on the anhydrous substance” value [2] read?
Answer: more stable

Question: For `Cc1c(C(=O)c2cnn(C)c2[O-])ccc(S(C)(=O)=O)c1C1=NOCC1.[Na+]` [topramezone sodium salt], which “Activity compared with topramezone acid” value [3] is on record?
Answer: equivalent to or even higher than that of topramezone acid
